Test results as given in US9180163B2, “Parstatin peptides” (priority 2009, dated 2015).
Ends that are not written are not given here.

Key:
HUVEC cells = assay: [3H]-thymidine incorporation (DNA synthesis); format: cell-based, human; settings: 10 μM, bFGF 5 ng/ml
Description: The ability of parstatin (1-41) to inhibit DNA synthesis of endothelial cells was assessed in thymidine incorporation assays. HUVEC cells were grown until 60-80% confluent in 24-well plates. Cells were treated with indicated peptides in serum-free medium containing either 0.5% BSA, or VEGF, or bFGF, or medium containing 5% FBS, or epidermal growth factor (EGF), or heparin-binging EGF (HB-EGF) for 18 hours. All cells were pulsed with 0.5 μCi/ml [3H]-thymidine (ICN Biomedicals Inc., Irvine Calif.) for additional 6 h. Radioactivity incorporated into DNA was determined in liquid scintillation counter.

[1] = system: Erk1/2 (p42/44 MAPK) in HUVEC cells; assay: Erk1/2 phosphorylation immunoblot (MAP kinase pathway); format: cell-based, human; settings: pretreatment 1 h, 10 μM; stimulated by FBS, bFGF or VEGF
Description: The MAPK (Erk1/2, p42/44) cascade mediates mitogenesis. […] HUVEC cells were cultured in 35 mm tissue culture dishes. After reaching 80% confluency, cells were growth factor-starved and subsequently stimulated for 10 min with vehicle or indicated agents. In combination experiments, cells were pretreated with parstatin or other peptides for 10 to 60 min.
Attached cells were lysed with Laenmli sample buffer, resolved in 10% SDS-PAGE, and transferred to nitrocellulose membranes. Membranes were incubated with primary antibodies against phospho p42/44 mitogen-activated protein kinases (p-Erk1/2, New England Biolabs, UK) and p42/44 Erk1/2 (t-Erk1/2, New England Biolabs, UK). Membranes were then probed with secondary antibodies horseradish peroxidase-conjugated, and proteins were visualized by chemiluminescent detection.

[2] = system: myocardial ischemia-reperfusion injury in Sprague Dawley rats; settings: for infarct size, inhibitor alone: without parstatin (1-26), L-NMA 15 μg/Kg, ODQ 1 mg/kg, glibenclamide 3 mg/kg, atractyloside 3 mg/Kg
Description: Parstatin (1-41) was used in an in vivo rat model of cardiac ischemia and reperfusion, and in an in vitro isolated rat heart model of ischemia-reperfusion injury.
For in vivo infarct size studies, rats were anesthetized with pentobarbital sodium (50 mg/Kg) and heparin (1000 IU/Kg) and underwent 30 min of regional ischemia followed by 120 min of reperfusion. Parstatin (1-41) was administered-intravenously over 1 min starting 15 min prior to ischemia, or 15 min after the onset of ischemia, or 10 seconds after the onset of reperfusion in separate series of experiments (n=6/group).
To induce ischemia, ligature was positioned around the left main coronary artery and threaded through a plastic snare to permit reversible occlusion of the coronary artery. Coronary occlusion was induced by clamping the snare onto the heart and reperfusion was achieved by releasing the snare. At the end of reperfusion, the coronary artery was re-occluded and the risk zone was delineated by perfusion of 0.5% Evans' blue into the aortic cannula. Hearts were sectioned and incubated in 1% triphenyltetrazolium chloride in phosphate buffer for 15 min to define white necrotic tissue when fixed in 10% formalin for 24 h. Area at risk (AAR) and infarct-to-risk rations were determined by computerized planimetry using J-Image v.i.6 software (NIH, Bethesda, Mass.).
For in vivo infarct size/ischemia-reperfusion studies, rats were anesthetized with pentobarbital sodium (50 mg/Kg) and heparin (1000 IU/Kg) and underwent 30 min of regional ischemia followed by 120 min of reperfusion. Human hydrophobic parstatin (1-26) fragment was administered intravenously over 1 min at one of three time points: 1) starting 15 min prior to ischemia, 2) 15 min after the onset of ischemia, or 3) 10 seconds after the onset of reperfusion in a separate series of experiments (n=6/group).
Ischemia was induced by placement of a ligature around the left main coronary artery which was threaded through a plastic snare to permit reversible occlusion of the coronary artery. Coronary occlusion was induced by clamping the snare onto the heart and reperfusion was achieved by releasing the snare. At the end of reperfusion, the coronary artery was re-occluded and the risk zone was delineated by perfusion 0.5% Evans' blue into the aortic cannula.
Hearts were sectioned and incubated in 1% triphenyltetrazolium chloride in phosphate buffer for 15 min to define white necrotic tissue when fixed in 10% formalin for 24 h. Area at risk (AAR) and infarct-to-risk rations were determined by computerized planimetry using J-Image v.i.6 software (NIH, Bethesda, Mass.). The principal endpoint of these studies was infarct size expressed as a percentage of the area at risk.

isolated rat hearts = assay: isolated rat heart ischemia-reperfusion; settings: for infarct size / LVDP, inhibitor alone: without parstatin (1-41), L-NMA 100 μM, ODQ 10 μM
Description: For in vitro studies, excised hearts were retrogradely perfused through the aorta with a modified Krebs buffer. Coronary flow rate was determined by timed collection of the coronary effluent. A saline-filled latex balloon connected to a pressure transducer was inserted into the left […] (LV), and baseline end-diastolic pressure was set at 5-10 mmHg. Heart rate, LV end-diastolic pressure and LV developed pressures (LVDP) were recorded continuously. The measurements for post-ischemic recovery of LVDP used for comparison were taken at 180 min of reperfusion. After stabilization for 15-20 min, the hearts (n=6/group) were subjected to 30 min of regional ischemia, followed by 180 min of reperfusion. Different concentrations of […] (1-41) were perfused 15 min prior to coronary occlusion until occlusion. Control hearts produced an infarct size of 51±3% of the area at risk (FIG. 19A). […] A picture representation of infarct in control versus […] Similarly, […] (1-41) increased recovery of LVDP in a concentration-dependent manner (FIG. 19B). Again, the optimal concentration was 1 μM which produced a 23% recovery of LVDP (FIG. 19B).

[3] = system: retinal neovascularization in C57BL/6 mice; format: in vivo; settings: mouse, in vivo
Excerpt: Parstatin (1-41), hydrophobic parstatin (1-26) fragment and hydrophilic parstatin (24-41) fragment were used in an in vivo mouse model of retinal neovascularization. In particular, oxygen-induced retinopathy was used to generate retinal neovascularization as a preclinical disease model for retinopathy of prematurity and other retinal neovascular diseases such as diabetic retinopathy. In this model, exposing newborn mice to hyperoxia prompts regression or delay of retinal vascular development, followed by abnormal angiogenesis after their return to normal oxygen levels. Mainly, this model mirrors the events that occur during retinopathy of prematurity, when infants are removed from oxygen-rich incubators, a condition involving pathological neovascularization that can affect premature infants and result in permanent visual loss. In recent years, the use of this model has been extended to the general study of ischemic vasculopathies, such us diabetic retinopathy, and related antiangiogenic interventions, and it is now used extensively in both basic and applied research environments.
Pathogen-free C57BL/6 mice were treated in accordance with the Association for Research in Vision and Ophthalmology Statement for the Use of Animals in Ophthalmic and Vision Research and the guidelines of the Animal Care and Use Committee at local University Medical School. Litters of 7-day old (P7) mice were exposed to an atmosphere of 75% oxygen in an airtight incubator for 5 days (P12), after which they were returned to room air for 5 days (P17). For quantification of oxygen-induced retinal neovascularization, mice on P17 were given an intraocular injection of 1 μl of rat anti-mouse platelet endothelial cell adhesion molecule-1 (PECAM-1) antibody (Pharmingen, San Jose, Calif.) under a dissecting microscope with Harvard pump microinjection apparatus. Mice were euthanized 12 hours after injection and eyes were fixed in PBS-buffered formalin for 5 hours. […] Retinal flat mounts were prepared and assessed with fluorescence microscope using imaging software. […]

[4] = system: choroidal neovascularization in C57BL/6J mice; format: in vivo; settings: mouse, in vivo
Description: Parstatin (1-41), hydrophobic parstatin (1-26) fragment and hydrophilic parstatin (24-41) fragment were used in an in vivo mouse model of choroidal neovascularization. In particular, laser photocoagulation-induced rupture of Bruch's membrane was used to generate choroidal neovascularization as a preclinical disease model for age-related macular degeneration. Pathogen-free C57BL/6J (4-5 week-old) mice were treated in accordance with the Association for Research in Vision and Ophthalmology Statement for the Use of Animals in Ophthalmic and Vision Research and the guidelines of the Animal Care and Use Committee at local University Medical School.
C57BL/6J (4-5 week-old) mice were anesthetized with ketamine hydrochloride (100 mg/kg body weight) and xylazine-(4 mg/Kg body weight) and the pupils were dilated with 1% tropicamide. Laser photocoagulation (75 μm spot size, 0.1 sec duration, 120 mW) was performed in the 9, 12, and 3 o'clock positions of the posterior pole of the retina with the slit lamp delivery system of an Oculight GL diode laser (Index, Mountain View, Calif.) and a handheld cover slip as a contact lens to view the retina. Production of a bubble at the time of laser, which indicates rupture of Bruch's membrane, is an important factor in obtaining CNV. Therefore, only burns in which a bubble was produced were included in the study. Two weeks after rupture of Bruch's membrane, anesthetized mice were perfused with 50 mg/ml fluorescein-labelled-dextran (2×10^6 average molecular weight, Sigma-Aldrich, St. Louis, Mo.). The eyes were then dissected and fixed in 10% Formalin for 3 hours and choroidal flat mounts were examined by fluorescence microscopy. Image-Pro Plus software (Media Cybernetics, Silver Spring, Md.) was used to measure the total area of CNV at each rupture site by personnel blinded as to study treatments and groups.
Intraocular injections of parstatin peptides were performed with a Harvard pump microinjection apparatus and pulled glass micropipets. […] Choroidal neovascularization was assessed 14 days after laser treatment.

Compound	infarct size, inhibitor alone [2]	infarct size / LVDP, inhibitor alone (isolated rat hearts)	also measured
MGPRRLLLVAACFSLCGPLL-SARALTRSAPTPRDRANKETR (MGPRRLLLVAACFSLCGPLLSARALTRSAPTPRDRANKETR; Scrambled synthetic peptide) [modulated parstatin, human parstatin with amino acids 24 to 41 scrambled]	–	–	bFGF-induced DNA synthesis (HUVEC cells): inhibit; activation of Erk1/2 [1]: inhibit
O=c1onc2cnc3ccccc3n12 [ODQ, 1H-[1,2, 4]oxadiazolo-[4,3-a]quinoxalin-1-one, reference compound]	no effect	no effect	–
C=C1[C@@H]2CC[C@H]3[C@]4(C)C[C@H](O[C@@H]5O[C@H](CO)[C@@H](OS(=O)(=O)O)[C@H](OS(=O)(=O)O)[C@H]5OC(=O)CC(C)C)C[C@@H](C(=O)O)[C@H]4CC[C@]3(C2)[C@H]1O [Atractyloside, atractyloside, reference compound]	no effect	–	–
MGPRRLLLVAACFSLCGPLLSARTRARRPESKATNATLDPR (cysteines drawn unpaired) [parstatin (1-41)]	–	–	baseline hemodynamics (heart rate, blood pressures) between groups ([2]; rat, in vivo): no significant differences; inotropic or chronotropic effects before ischemia (isolated rat hearts; 1 μM): did not have inotropic or chronotropic effects; tolerability in newborn mice [3]: not well tolerated; tolerability (slit lamp: irritation, inflammation, ocular toxicity; systemic toxicity) [4]: well tolerated
COc1ccc(Cl)cc1C(=O)NCCc1ccc(S(=O)(=O)NC(=O)NC2CCCCC2)cc1 [Glibenclamide, glibenclamide, reference compound]	no effect	–	–
COC(=O)[C@@H](N)CCCNC(=N)N[N+](=O)[O-] [L-NMA, Nω-nitro-L-arginine methyl ester, reference compound]	without effect	no effect	–
